Measurements as given in patent EP2790511B1 (Merck Sharp & Dohme Corp., priority 2011, dated 2013).
pIC50: −log10 of the molar value. Like-named read-outs stand apart in the source and are kept apart here.

Key:
[1] = target: T1, hROMK (hKir1.1) (Homo sapiens, UniProt P48048); assay: Thallium Flux Assay; format: cell-based
T1 construct: expressed in transfected cells
T1 sequence (P48048 1-391): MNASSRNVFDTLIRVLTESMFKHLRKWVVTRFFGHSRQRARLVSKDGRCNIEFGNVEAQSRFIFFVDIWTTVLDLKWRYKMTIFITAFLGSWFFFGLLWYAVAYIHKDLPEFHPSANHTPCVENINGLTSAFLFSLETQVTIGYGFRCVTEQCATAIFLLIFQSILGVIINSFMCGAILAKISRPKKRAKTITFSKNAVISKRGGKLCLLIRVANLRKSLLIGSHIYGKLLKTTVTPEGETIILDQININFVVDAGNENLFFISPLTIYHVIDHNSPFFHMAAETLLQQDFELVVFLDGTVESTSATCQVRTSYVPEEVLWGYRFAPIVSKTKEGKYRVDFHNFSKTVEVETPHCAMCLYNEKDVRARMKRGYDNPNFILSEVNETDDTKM
Procedure, shortened: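 HEK293 cells stably expressing hROMK, loaded with FluxOR dye 90 min at ambient temperature, then compound 30 min with 0.3 mM ouabain in probenecid buffer pH 7.4.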

[2] = target: T2, Kir1.1 (ROMK1) (Homo sapiens, UniProt P48048); assay: Electrophysiology Assay (whole cell voltage clamp, IonWorks Quattro)
T2 sequence (P48048 1-391): T1 sequence (P48048 1-391)
Description: Chinese hamster ovary cells stably expressing Kir1.1 channels were maintained in T-75 flasks in cell culture media in a humidified 10% CO2 incubator at 37 °C. Prior to an experiment, Kir1.1 expression was induced by overnight incubation with 1 mM sodium butyrate. […] After centrifugation, the cell pellet was resuspended in approximately 4.0 mL of bath solution and placed in the IonWorks instrument. The intracellular solution consisted of (in mM): 80 K gluconate, 40 KCl, 20 KF, 3.2 MgCl2, 3 EGTA, 5 Hepes, pH 7.4. Electrical access to the cytoplasm was achieved by perforation in 0.13 mg/mL amphotericin B for 4 min. […] Voltage protocols and current recordings were performed using the IonWorks HT software/hardware system. Currents were sampled at 1 kHz. No correction for liquid junction potentials was used. The test pulse, consisting of a 100 ms step to 0 mV from a holding potential of -70 mV, followed by a 100 ms voltage ramp from -70 mV to +70 mV, was applied before and after a 6 min compound incubation period. Test compounds were prepared by diluting DMSO stock solutions into the bath solution at 3x the final concentration and placed in the instrument in 96-well polypropylene plates. Current amplitudes were measured using the IonWorks software.

[3] = HEK293 cells stably expressing hROMK (hKir1.1), FLIPR-Tetra, read-out: Thallium Flux IC50

SMILES	pIC50 [1, 3]	pIC50 [2]	pIC50 ([1]; Thallium Flux IC50)
Cc1c([C@@H]2CN3CCN(C(=O)Cc4ccc(-n5cnnn5)cn4)C[C@H]3CO2)ccc(F)c1C#N [Example 2, 3-((3R,9aS)-8-(2-(5-(1H-tetrazol-1-yl)pyridin-2-yl)acetyl)octahydropyrazino[2,1-c][1,4]oxazin-3-yl)-6-fluoro-2-methylbenzonitrile]	6.92	7.15	
Cc1c([C@H]2CN3CCN(C(=O)Cc4cnc(-n5cnnn5)nc4)C[C@H]3CO2)ccc(F)c1C#N [Example 6, 6-fluoro-2-methyl-3[(3S,9aS)-8-{[2-(1H-tetrazol-1-yl)pyrimidin-5-yl]acetyl}octahydropyrazino[2,1-c][1,4]oxazin-3-yl]benzonitrile]		7.40	7.00
Cc1c([C@@H]2CN3CCN(C(=O)Cc4ccc(-n5cnnn5)nc4)C[C@H]3CN2)ccc(F)c1C#N [Example 194, 6-fluoro-2-methyl-3-[(3R,9aR)-8-{[6-(1H-tetrazol-1-yl)pyridin-3-yl]acetyl}octahydro-2H-pyrazino[1,2-a]pyrazin-3-yl]benzonitrile]	7.22	7.22	
COc1ccc([C@@H]2CN3CCN(C(=O)Cc4ccc(-n5cnnn5)nc4)C[C@H]3CO2)c(C)c1C#N [Example 50]	7.10	6.89	
COc1cc(F)c([C@@H]2CN3CCN(C(=O)Cc4ccc(-n5cnnn5)nc4)C[C@H]3CO2)cc1C#N [Example 57, 4-fluoro-2-methoxy-5-[(3R,9aS)-8-{[6-(1H-tetrazol-1-vl)pvridin-3-yl]acetyl}octahydropyrazino[2,1-c][1,4]oxazin-3-yl]benzonitrile]	6.68	6.72	
COc1c([C@H]2CN3CCN(C(=O)Cc4ccc(-n5cnnn5)nc4)C[C@H]3CO2)ccc(F)c1C#N [Example 61, 6-fluoro-2-methoxy-3-[(3S,9aS)-8-{[6-(1H-tetrazol-1-vl)pvridin-3-yl]acetyl}octahydropyrazino[2,1-c][1,4]oxazin-3-yl]benzonitrile]	6.89	7.15	
Cc1c([C@H]2CN3CCN(C(=O)Cc4ccc(-n5cnnn5)cn4)C[C@H]3CO2)ccc(F)c1C#N [Example 3, 3-((3S,9aS)-8-(2-(5-(1H-tetrazol-1-yl)pyridin-2-yl)acetyl)octahydropyrazino[2,1-c][1,4]oxazin-3-yl)-6-fluoro-2-methylbenzonitrile]	7.05	7.00	
Cc1c([C@@H]2CN3CCN(C(=O)Cc4cnc(-n5cnnn5)nc4)C[C@@H]3CO2)ccc(F)c1C#N [Example 13, 6-fluoro-2-methyl-3-[(3R,9aR)-8-{[2-(1H-tetrazol-1-yl)pyrimidin-5-yl]acetyl}octahydropyrazino[2,1-c][1,4]oxazin-3-yl]benzonitrile]		7.52	6.96
Cc1c([C@H]2CN3CCN(C(=O)Cc4ccc(-n5cnnn5)nc4)C[C@H]3CO2)ccc(F)c1C#N [Example 4, 6-fluoro-2-methyl-3-[(3S,9aS)-8-{[6-(1H-tetrazol-1-yl)pyridin-3-yl]acetyl}octahydropyrazino[2,1-c][1,4]oxazin-3-yl]benzonitrile]		7.40	7.15
Cc1c([C@@H]2CN3CCN(C(=O)Cc4ccc(-n5cnnn5)nc4)C[C@@H]3CO2)ccc(F)c1C#N [Example 8, 6-fluoro-2-methyl-3-[(3R,9aR)-8-{[6-(1H-tetrazol-1-yl)pyridin-3-yl]acetyl}octahydropyrazino[2,1-c][1,4]oxazin-3-yl]benzonitrile]		7.40	
Cc1c([C@H]2CN3CCN(C(=O)Cc4ccc(-n5cnnn5)nc4)C[C@@H]3CO2)ccc(F)c1C#N [Example 7, 6-fluoro-2-methyl-3-[(3S,9aR)-8-{[6-(1H-tetrazol-1-yl)pvridin-3-yl]acetyl}octahydropyrazino[2,1-c][1,4]oxazin-3-yl]benzonitrile]		7.15	
Cc1nc(-n2cnnn2)ncc1CC(=O)N1CCN2C[C@H](c3ccc(F)c(C#N)c3C)OC[C@@H]2C1 [Example 121, 6-fluoro-2-methyl-3-[(3S,9aS)-8-{[4-methyl-2-(1H-tetrazol-1-yl)pyrimidin-5-yl]acetyl}octahydropyrazino[2,1-c][1,4]oxazin-3-yl]benzonitrile]		7.05	6.92
N#Cc1cc([C@@H]2CN3CCN(C(=O)Cc4ccc(-n5cnnn5)cn4)C[C@H]3CO2)c(F)cc1F [Example 82, 2,4-difluoro-5-[(3R,9aS)-8-{[5-(1H-tetrazol-1-yl)pyridin-2-yl]acetyl}octahydropyrazino[2,1-c][1,4]oxazin-3-yl]benzonitrile]	6.47		
N#Cc1c(F)ccc([C@@H]2CN3CCN(C(=O)Cc4ccc(-n5cnnn5)cn4)C[C@H]3CO2)c1F [Example 54, 2,6-difluoro-3-[(3R,9aS)-8-{[5-(1H-tetrazol-1-yl)pyridin-2-yl]acetyl}octahydropyrazino[2,1-c][1,4]oxazin-3-yl]benzonitrile]	7.00		
Cc1c([C@H]2CN3CCN(C(=O)Cc4cnc(-n5cnnn5)c(F)c4)C[C@@H]3CO2)ccc(F)c1C#N [Example 147, 6-fluoro-3-[(3S,9aR)-8-{[5-fluoro-6-(1H-tetrazol-1-yl)pyridin-3-yl]acetyl}octahydropyrazino[2,1-c][1,4]oxazin-3-yl]-2-methylbenzonitrile]	6.85		
N#Cc1cc([C@@H]2CN3CCN(C(=O)Cc4ccc(-n5cnnn5)cn4)C[C@H]3CO2)ccc1F [Example 38, 2-fluoro-5-[(3R,9aS)-8-{[5-(1H-tetrazol-1-yl)pyridin-2-yl]acetyl}octahydropyrazino[2,1-c][1,4]oxazin-3-yl]benzonitrile]		6.92	
Cc1c([C@@H]2CN3CCN(C(=O)Cc4ccc(-n5cnnn5)nc4)C[C@H]3CCO2)ccc(F)c1C#N (single isomer, unassigned) [Example 171]	6.57		
Cc1c(C#N)cccc1[C@@H]1CN2CCN(C(=O)Cc3ccc(-n4cnnn4)nc3)C[C@@H]2CO1 [Example 117, 2-methyl-3-[(3R,9aR)-8-{[6-(1H-tetrazol-1-yl)pyridin-3-yl]acetyl}octahydropyrazino[2,1-c] [1,4]oxazin-3-yl]benzonitrile]			6.66
Cc1c([C@H]2CN3CCN(C(=O)Cc4cnc(-n5cnnn5)nc4)C[C@H]3CO2)ccc2c1COC2=O [Example 15, 4-methyl-5-[(3S,9aS)-8-{[2-(1H-tetrazol-1-yl)pyrimidin-5-yl]acetyl}octahydropyrazino[2,1-c][1,4]oxazin-3-yl]benzofuran-1(3H)-one]	6.85		
N#Cc1cc([C@@H]2CN3CCN(C(=O)Cc4ccc(-n5cnnn5)nc4)C[C@H]3CO2)ccc1F [Example 37, 2-fluoro-5-[(3R,9aS)-8-{[6-(1H-tetrazol-1-yl)pyridin-3-yl]acetyl}octahydropyrazino[2,1-c][1,4]oxazin-3-yl]benzonitrile]		7.70	
